Test results as given in US9227971B2, “Pyrazolo[1,5-a]pyrimidine compounds as mTOR inhibitors” (Merck Sharp & Dohme Corp., priority 2010, dated 2016).
Read-outs that look alike come from different tables or passages of the source.

Columns and labels:
[1] = system: phosphorylated AKT Ser473 (pAKT S473), mTORC2 activity, PC3 cells; assay: mTOR target engagement assay, immunofluorescent cell-based, pAKT S473 readout (mTORC2 activity); conditions: PC3 cells
Method in brief: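 After blocking, cells were stained overnight at 4 °C with anti-pAKT S473 antibody, then a fluorescent secondary; inhibition was read as reduced fluorescence intensity.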

[2] = system: phosphorylated 4E-BP1 Thr37/46 (p4E-BP1 Thr37/46), mTORC1 activity, PC3 cells; assay: mTOR target engagement assay, immunofluorescent cell-based, p4E-BP1 Thr37/46 readout (mTORC1 activity); conditions: PC3 cells, read-out: p4E-BP1 Thr37/46 IC50
Method in brief: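 Seed PC3 cells overnight; treat with compound dilutions for ninety minutes at 37° C; fix with glyoxal and block; stain with anti-p4E-BP1 Thr37/46 overnight at 4° C, then fluorescent secondary; read fluorescence and fit IC50 against DMSO-only controls.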

SMILES | IC50 ([1]; Homo sapiens, PC-3, Table 3-1) [nM] | IC50 ([2]; Homo sapiens, PC-3, Table 3-1) [nM] | IC50 ([1]; Table 3-1) [nM] | IC50 ([2]; Table 3-1) [nM]
Cc1cnc(-c2ccc(-c3cnn4c(N)c(S(C)(=O)=O)c([C@H]5CC6CC[C@H](C5)N6C(=O)c5nnc[nH]5)nc34)cn2)s1 [Compound 3.180, ((1R,3s,5S)-3-(7-amino-6-(methylsulfonyl)-3-(6-(5-methylthiazol-2-yl)pyridin-3-yl)pyrazolo[1,5-a]pyrimidin-5-yl)-8-azabicyclo[3.2.1]octan-8-yl)(4H-1,2,4-triazol-3-yl)methanone] | 1 to 100 | 1 to 100 | – | –
Cc1cnc(-c2ccc(-c3cnn4c(N)c(S(C)(=O)=O)c([C@H]5CC6CC[C@H](C5)N6C(=O)c5cn[nH]n5)nc34)cn2)s1 [Compound 3.181, ((1R,3s,5S)-3-(7-amino-6-(methylsulfonyl)-3-(6-(5-methylthiazol-2-yl)pyridin-3-yl)pyrazolo[1,5-a]pyrimidin-5-yl)-8-azabicyclo[3.2.1]octan-8-yl)(2H-1,2,3-triazol-4-yl)methanone] | 100 to 1000 | 1 to 100 | – | –
CC(=O)N1[C@@H]2CC[C@H]1C[C@H](c1nc3c(-c4ccc(-c5ncc(C)s5)nc4)cnn3c(N)c1S(C)(=O)=O)C2 [Compound 3.182, 1-((1R,3s,5S)-3-(7-amino-6-(methylsulfonyl)-3-(6-(5-methylthiazol-2-yl)pyridin-3-yl)pyrazolo[1,5-a]pyrimidin-5-yl)-8-azabicyclo[3.2.1]octan-8-yl)ethanone] | – | – | 100 to 1000 | 100 to 1000
Cc1nnc(C(=O)N2[C@@H]3CC[C@H]2C[C@H](c2nc4c(-c5ccc(-c6ncc(C)s6)nc5)cnn4c(N)c2S(C)(=O)=O)C3)[nH]1 [Compound 3.184, ((1R,3s,5S)-3-(7-amino-6-(methylsulfonyl)-3-(6-(5-methylthiazol-2-yl)pyridin-3-yl)pyrazolo[1,5-a]pyrimidin-5-yl)-8-azabicyclo[3.2.1]octan-8-yl)(5-methyl-4H-1,2,4-triazol-3-yl)methanone] | 1 to 100 | 1 to 100 | – | –
Cc1cnc(-c2ccc(-c3cnn4c(N)c(S(C)(=O)=O)c([C@@H]5C[C@H]6CC[C@@H](C5)N6C(=O)CO)nc34)cn2)s1 [Compound 3.185, 1-((1R,3a,5S)-3-(7-amino-6-(methylsulfonyl)-3-(6-(5-methylthiazol-2-yl)pyridin-3-yl)pyrazolo[1,5-a]pyrimidin-5-yl)-8-azabicyclo[3.2.1]octan-8-yl)-2-hydroxyethanone] | 100 to 1000 | 100 to 1000 | – | –
Cc1cnc(-c2ccc(-c3cnn4c(N)c(S(C)(=O)=O)c([C@@H]5C[C@H]6CC[C@@H](C5)N6C(=O)C5(O)CC5)nc34)cn2)s1 [Compound 3.186, ((1R,3s,5S)-3-(7-amino-6-(methylsulfonyl)-3-(6-(5-methylthiazol-2-yl)pyridin-3-yl)pyrazolo[1,5-a]pyrimidin5-yl)-8-azabicyclo[3.2.1]octan-8-yl)(1-hydroxycyclopropyl)methanone] | 1000 to 10000 | 1000 to 10000 | – | –
Cc1cnc(-c2ccc(-c3cnn4c(N)c(S(C)(=O)=O)c([C@@H]5C[C@H]6CC[C@@H](C5)N6C(=O)C(O)C(F)(F)F)nc34)cn2)s1 (stereo partly drawn) [Compound 3.187, 1-((1R,3s,5S)-3-(7-amino-6-(methylsulfonyl)-3-(6-(5-methylthiazol-2-yl)pyridin-3-yl)pyrazolo[1,5-a]pyrimidin-5-yl)-8-azabicyclo[3.2.1]octan-8-yl)-3,3,3-trifluoro-2-hydroxypropan-1-one] | 1000 to 10000 | 1000 to 10000 | – | –
Cc1cnc(-c2ccc(-c3cnn4c(N)c(S(C)(=O)=O)c([C@@H]5C[C@H]6CC[C@@H](C5)N6C(=O)C(N)C(F)(F)F)nc34)cn2)s1 (stereo partly drawn) [Compound 3.188, 2-amino-1-((1R,3s,5S)-3-(7-amino-6-(methylsulfonyl)-3-(6-(5-methylthiazol-2-yl)pyridin-3-yl)pyrazolo[1,5-a]pyrimidin-5-yl)-8-azabicyclo[3.2.1]octan-8-yl)-3,3,3-trifluoropropan-1-one] | 1000 to 10000 | 1000 to 10000 | – | –
Cc1csc(-c2ccc(-c3cnn4c(N)c(S(C)(=O)=O)c([C@@H]5C[C@H]6CC[C@@H](C5)N6C(=O)c5cn[nH]n5)nc34)cn2)n1 [Compound 3.189, ((1R,3s,5S)-3-(7-amino-6-(methylsulfonyl)-3-(6-(4-methylthiazol-2-yl)pyridin-3-yl)pyrazolo[1,5-a]pyrimidin-5-yl)-8-azabicyclo[3.2.1]octan-8-yl)(2H-1,2,3-triazol-4-yl)methanone] | 1000 to 10000 | 1000 to 10000 | – | –
CC(=O)N1[C@@H]2CC[C@H]1C[C@H](c1nc3c(-c4ccc(-c5nc(C)cs5)nc4)cnn3c(N)c1S(C)(=O)=O)C2 [Compound 3.190, 1-((1R,3a,5S)-3-(7-amino-6-(methylsulfonyl)-3-(6-(4-methylthiazol-2-yl)pyridin-3-yl)pyrazolo[1,5-a]pyrimidin-5-yl)-8-azabicyclo[3.2.1]octan-8-yl)ethanone] | 1000 to 10000 | 1000 to 10000 | – | –
Cc1csc(-c2ccc(-c3cnn4c(N)c(S(C)(=O)=O)c([C@@H]5C[C@H]6CC[C@@H](C5)N6C(=O)c5nnc(C)[nH]5)nc34)cn2)n1 [Compound 3.191, ((1R,3s,5S)-3-(7-amino-6-(methylsulfonyl)-3-(6-(4-methylthiazol-2-yl)pyridin-3-yl)pyrazolo[1,5-a]pyrimidin-5-yl)-8-azabicyclo[3.2.1]octan-8-yl)(5-methyl-4H-1,2,4-triazol-3-yl)methanone] | 100 to 1000 | 100 to 1000 | – | –
Cc1csc(-c2ccc(-c3cnn4c(N)c(S(C)(=O)=O)c([C@@H]5C[C@H]6CC[C@@H](C5)N6C(=O)c5nnc[nH]5)nc34)cn2)n1 [Compound 3.192, ((1R,3s,5S)-3-(7-amino-6-(methylsulfonyl)-3-(6-(4-methylthiazol-2-yl)pyridin-3-yl)pyrazolo[1,5-a]pyrimidin-5-yl)-8-azabicyclo[3.2.1]octan-8-yl)(4H-1,2,4-triazol-3-yl)methanone] | 100 to 1000 | 100 to 1000 | – | –
CS(=O)(=O)c1c([C@@H]2C[C@H]3CC[C@@H](C2)N3C(=O)c2nnc[nH]2)nc2c(-c3ccc(-c4nc5c(s4)CCC5)nc3)cnn2c1N [Compound 3.193, ((1R,3s,5)S-3-(7-amino-3-(6-(5,6-dihydro-4H-cyclopenta[d]thiazol-2-yl)pyridin-3-yl)-6-(methylsulfonyl)pyrazolo[1,5-a]pyrimidin-5-yl)-8-azabicyclo[3.2.1]octan-8-yl)(4H-1,2,4-triazol-3-yl)methanone] | 100 to 1000 | 100 to 1000 | – | –
Cc1nnc(C(=O)N2[C@@H]3CC[C@H]2C[C@H](c2nc4c(-c5ccc(-c6nc7c(s6)CCC7)nc5)cnn4c(N)c2S(C)(=O)=O)C3)[nH]1 [Compound 3.195, ((1R,3s,5S)-3-(7-amino-3-(6-(5,6-dihydro-4H-cyclopenta[d]thiazol-2-yl)pyridin-3-yl)-6-(methylsulfonyl)pyrazolo[1,5-a]pyrimidin-5-yl)-8-azabicyclo[3.2.1]octan-8-yl)(5-methyl-4H-1,2,4-triazol-3-yl)methanone] | 1000 to 10000 | 1000 to 10000 | – | –
Cc1nc(-c2ccc(-c3cnn4c(N)c(S(C)(=O)=O)c([C@@H]5C[C@H]6CC[C@@H](C5)N6C(=O)c5nnc[nH]5)nc34)cn2)sc1C [Compound 3.196, ((1R,3s,5S)-3-(7-amino-3-(6-(4,5-dimethylthiazol-2-yl)pyridin-3-yl)-6-(methylsulfonyl)pyrazolo[1,5-a]pyrimidin-5-yl)-8-azabicyclo[3.2.1]octan-8-yl)(4H-1,2,4-triazol-3-yl)methanone] | 100 to 1000 | 100 to 1000 | – | –
Cc1nnc(C(=O)N2[C@@H]3CC[C@H]2C[C@H](c2nc4c(-c5ccc(-c6nc(C)c(C)s6)nc5)cnn4c(N)c2S(C)(=O)=O)C3)[nH]1 [Compound 3.197, ((1R,3s,5S)-3-(7-amino-3-(6-(4,5-dimethylthiazol-2-yl)pyridin-3-yl)-6-(methylsulfonyl)pyrazolo[1,5-a]pyrimidin-5-yl)-8-azabicyclo[3.2.1]octan-8-yl)(5-methyl-4H-1,2,4-triazol-3-yl]methanone] | 100 to 1000 | 100 to 1000 | – | –
Cc1nc(C(=O)N2[C@@H]3CC[C@H]2C[C@H](c2nc4c(-c5ccc(-c6csc(C)n6)nc5)cnn4c(N)c2S(C)(=O)=O)C3)n[nH]1 [Compound 3.199, ((1R,3s,5S)-3-(7-amino-6-(methylsulfonyl)-3-(6-(2-methylthiazol-4-yl)pyridin-3-yl)pyrazolo[1,5-a]pyrimidin-5-yl)-8-azabicyclo[3.2.1]octan-8-yl)(5-methyl-1H-1,2,4-triazol-3-yl)methanone] | 1 to 100 | 100 to 1000 | – | –
CC(=O)N1[C@@H]2CC[C@H]1C[C@H](c1nc3c(-c4ccc(-c5csc(C)n5)nc4)cnn3c(N)c1S(C)(=O)=O)C2 [Compound 3.200, 1-((1R,3s,5S)-3-(7-amino-6-(methylsulfonyl)-3-(6-(2-methylthiazol-4-yl)pyridin-3-yl)pyrazolo[1,5-a]pyrimidin-5-yl)-8-azabicyclo[3.2.1]octan-8-yl)ethanone] | 1000 to 10000 | 1000 to 10000 | – | –
Cc1nc(-c2ccc(-c3cnn4c(N)c(S(C)(=O)=O)c([C@@H]5C[C@H]6CC[C@@H](C5)N6C(=O)c5cn[nH]n5)nc34)cn2)cs1 [Compound 3.201, ((1R,3s,5S)-3-(7-amino-6-(methylsulfonyl)-3-(6-(2-methylthiazol-4-yl)pyridin-3-yl)pyrazolo[1,5-a]pyrimidin-5-yl)-8-azabicyclo[3.2.1]octan-8-yl)(2H-1,2,3-triazol-4-yl)methanone] | 100 to 1000 | 1000 to 10000 | – | –
CS(=O)(=O)c1c([C@@H]2C[C@H]3CC[C@@H](C2)N3)nc2c(-c3ccc(-c4ccccc4)nc3)cnn2c1N [Compound 3.202, 5-((1R,3s,5S)-8-azabicyclo[3.2.1]octan-3-yl)-6-(methylsulfonyl)-3-(6-phenylpyridin-3-yl)pyrazolo[1,5-a]pyrimidin-7-amine] | 1000 to 10000 | 1000 to 10000 | – | –
